US20240271226A1, “METHODS OF PATHOGEN IDENTIFICATION AND ANTIMICROBIAL SUSCEPTIBILITY TESTING” (priority 2020, published 2024)
Several values for one entry are separate records, joined by “and”; a condition that tells them apart may be missing. Identical values can stand only once. {FAM-O} = FAM dye attached through an O linker at the PNA N-terminus; {IABk} = Iowa Black quencher

Experiments:
[1] = tested on: multi-drug resistant strain of E. coli (ATCC BAA 2471); details: cited from earlier work
[2] = tested on: uropathogenic E. coli; details: Baltimore, USA; cited from earlier work
[3] = tested on: E. coli ATCC 25922 16S rRNA; experiment: Bulk PNA probe hybridization assay in urine, LIF detection; type: binding; details: ~10^9 CFU/mL E. coli ATCC 25922 spiked in urine; 2 min 95° C. lysis, 30 min 60° C. hybridization
From the text: (§1) PNA probes were designed to target specific regions in the 16S rRNA for organisms belonging to the Enterobacterales (EB) order, the E. coli and P. mirabilis species (EC and PM), and the eubacterial kingdom (UNI), based on previous work (52, 72) (Table 1). The EB, EC, and PM probes were labeled with a FAM fluorophore, whereas the universal probe was labeled with an Alexa546 fluorophore. For each PNA probe, a short complementary DNA quencher was designed labeled with an Iowa Black® dark quencher. All probes were synthesized by PNA Bio (Newbury Park, CA), and all DNA quencher strands were synthesized by Integrated DNA Technologies (San Diego, CA). Probes and quenchers were stored in a custom hybridization buffer consisting of 50 mM NaCl, 25 mM Tris-HCl pH 8.0, and 0.5% polyvinylpyrrolidone (PVP) at −20° C. PVP is included to reduce the likelihood of probes being adsorbed to or retained by the walls of the PDMS devices. Prior to each experiment, individual aliquots of PNA probes were first thawed at 60° C. for 10 min to ensure full dissolution of the PNA stock into the hybridization buffer. For both bulk-based and droplet experiments, 200 nM PNA probes were mixed with 600 nM of the corresponding quencher in the custom hybridization buffer, and this solution was either mixed in bulk or co-encapsulated into droplets at a 1:1 ratio along with bacteria-containing urine and/or MH suspensions. An appropriate dosage of antibiotics was included in this mixture if required for the experiment.
(§2) We first verified that the probes can specifically detect target bacteria spiked into urine. […] We spiked ˜10^9 CFU/mL (equivalent to 1 cell in a ˜1 pL droplet) of standard reference strains of E. coli ATCC 25922, P. mirabilis ATCC 12453, K. pneumoniae ATCC BAA 1705, and P. aeruginosa ATCC 27853 into a mixture of culture-negative (i.e., blank) urine samples and hybridization buffer with each PNA probe. Each sample was subjected to 2 min of thermal lysis at 95° C. and 30 min of hybridization at 60° C., and then detected at room temperature within a 10 μm-wide microfluidic detection channel by our 2-color LIF detector (FIG. 6).

[4] = Tm of designed PNA probes; type: physicochemical
From the text: as §1, with “An appropriate dosage of antibiotics was included in this mixture if required for the experiment.” left out

[5] = tested on: P. mirabilis ATCC 12453 16S rRNA; experiment: Bulk PNA probe hybridization assay in urine, LIF detection; type: binding; details: ~10^9 CFU/mL P. mirabilis ATCC 12453 spiked in urine; 2 min 95° C. lysis, 30 min 60° C. hybridization
From the text: as §1, §2

[6] = tested on: K. pneumoniae ATCC BAA 1705 16S rRNA; experiment: as above; type: binding; details: ~10^9 CFU/mL K. pneumoniae ATCC BAA 1705 spiked in urine; 2 min 95° C. lysis, 30 min 60° C. hybridization
From the text: as §1, §2

[7] = tested on: P. aeruginosa ATCC 27853 16S rRNA; experiment: as above; type: binding; details: ~10^9 CFU/mL P. aeruginosa ATCC 27853 spiked in urine; 2 min 95° C. lysis, 30 min 60° C. hybridization
From the text: as §1, §2

[8] = tested on: multi-drug resistant E. coli ATCC BAA 2471; experiment: Bulk pheno-molecular AST by 16S rRNA hybridization detection; type: cell-based; details: gentamicin 8 μg/mL, 20 μL bulk, 0-120 min at 37° C., EC PNA probe
From the text: (§3) We note that we can achieve preliminary pheno-molecular AST by directly detecting PNA-to-16S rRNA hybridization in the bulk format via the LIF detector, though only after relatively lengthy antibiotic exposure. […] We then determined the relative fluorescence intensity—the ratio between the fluorescence intensities of the gentamicin-dosed cells and the gentamicin-free cells—for both strains for each culture duration.

[9] = tested on: reference E. coli ATCC 25922; experiment: as above; type: cell-based
From the text: as §3

[10] = tested on: multi-drug resistant E. coli; experiment: In-droplet single-cell 16S rRNA AST in spiked urine; type: cell-based; details: gentamicin 8 μg/mL, urine with 2×MH broth, 37° C. for 30, 15, 10 or 5 min
Experimental: We next sought to minimize the culture/antibiotic exposure time for assessing antimicrobial susceptibility in urine. We separately digitized reference and multi-drug resistant E. coli-spiked urine samples, each along with 2×MH broth and EC PNA probes in droplets without and with gentamicin (bactericidal concentration of 8 μg/mL). Each gentamicin-free and gentamicin-dosed droplet group pair was then incubated at 37° C. for 30, 15, 10, or 5 min, followed by lysis, hybridization, and LIF detection (FIG. 13B). Longer bacterial culture result in higher production of 16S rRNA in gentamicin-free bacterial cells and therefore increased positive droplet frequencies. […] The effect of gentamicin on the two strains can be differentiated after as short as 10 min culture/antibiotic exposure, the minimum time at which there is no overlap between the error envelopes around the normalized positive droplet populations. […] As a result, we achieve assessment of antimicrobial susceptibility faster than the average replication time of an E. coli cell, a feat that ultimately paves the way for integrating molecular ID and AST to well under 30 min.
Finally, we investigated the utility of our single-cell 16S rRNA-based phenomolecular AST approach against 3 clinically important antibiotics. […]. […]

[11] = tested on: E. coli cells; experiment: In-droplet single-cell 16S rRNA AST in MH broth; type: cell-based
From the text: A custom MATLAB program was developed for analyzing the raw fluorescence intensity data acquired from the APD. From the fluorescence intensity time trace of each experimental run, the program looks for individual droplets by quantifying peak widths and peak heights. Once droplet position and fluorescence intensity were identified for all droplets in a sample, the intensities were plotted as a histogram with ˜150 bins. Resulting histograms typically follow a bimodal distribution, and in order to classify the respective subpopulations, the first droplet histogram peak (“empty droplets”) were fitted with a Gaussian curve. Based on the fitted curve, the mean intensity of the empty droplet population as well as the standard deviation were calculated. All droplets whose intensities were 5 standard deviations above the empty droplet mean intensity were counted as bacteria-containing “positive droplets.” Signal to background ratios were calculated by dividing the mean intensity of positive droplets by the mean intensity of empty droplets.
We first co-encapsulated the EC probe and E. coli cells, which were spiked into Mueller-Hinton broth (MH), into picoliter droplets. […]

[12] = tested on: reference E. coli; experiment: In-droplet single-cell 16S rRNA AST in spiked urine; type: cell-based; details: gentamicin 8 μg/mL, urine with 2×MH broth, 37° C. for 30, 15, 10 or 5 min

CC1(C)S[C@@H]2[C@H](NC(=O)[C@H](N)c3ccccc3)C(=O)N2[C@H]1C(=O)O [ampicillin]
reported resistance of the strain [1]: resistant

O=C(O)c1cn(C2CC2)c2cc(N3CCNCC3)c(F)cc2c1=O [ciprofloxacin]
resistance rate [2]: ≤ 31% | reported resistance of the strain [1]: resistant

EC probe: FAM-labeled PNA probe FAM-O-TCAATGAGCAAAGGT-KK targeting E. coli 16S rRNA, with Iowa Black DNA quencher IABk-AGTTACTCGT (chain 1: all peptide nucleic acid (PNA), 5' {FAM-O}; chain 2: DNA, 5' {IABk}, backbone and methylation of C not given here; PNA carries two C-terminal lysines)
probe fluorescence signal in the presence of target bacteria over blank urine background [3]: significantly higher signal | Tm [4]: 76.3 °C

UNI probe: Alexa546-labeled pan-bacteria PNA probe GCTGCCTCCCGTAGGA-K-Alexa546 targeting eubacterial 16S rRNA, with DNA quencher GGAGGGCATCCT-IABk (PNA, lysine-Alexa546, DNA quencher strand, chemistry not fully specified)
probe fluorescence signal in the presence of target bacteria over blank urine background [5]: successfully detects | probe fluorescence signal in the presence of target bacteria over blank urine background [6]: successfully detects | probe fluorescence signal in the presence of target bacteria over blank urine background [3]: successfully detects | probe fluorescence signal in the presence of target bacteria over blank urine background [7]: successfully detects | Tm [4]: 80.5 °C

gentamicin
relative fluorescence intensity (gentamicin-dosed cells / gentamicin-free cells) [8]: ~1 | culture/antibiotic exposure needed to see or differentiate the effect on susceptible vs resistant E. coli ([9]; bulk format, vs multi-drug resistant E. coli BAA 2471): > 90 min and 90 min | relative fluorescence intensity (gentamicin-dosed cells / gentamicin-free cells) ([9]; gentamicin 8 μg/mL, 20 μL bulk, 0-120 min at 37° C., EC PNA probe): significantly lower relative fluorescence intensities | normalized positive droplet population [10]: comparatively higher and relatively unchanging normalized positive droplet population | normalized positive droplet population versus antibiotic concentration ([11]; E. coli in MH broth, droplets): decreases as the concentration of gentamicin increases | frequency of positive droplets ([11]; gentamicin 128 μg/mL, 30 min culture/antibiotic exposure, MH broth, 4×10^7 CFU/mL E. coli, no-antibiotic control 7.70%): 3.12% | reported resistance of the strain [1]: resistant | normalized positive droplet population [12]: decreasing normalized positive droplet population over increasing culture times
